Assay results reported in US5605929A, “Methods and compositions for inhibiting 5α-reductase activity” (priority 1995, dated 1997).
Read-outs that look alike come from different tables or passages of the source.

Tests used:
[1] = tested on: hamster flank organ; assay: Flank organ, castrated immature male hamsters, topical treatment; assay type: in vivo, Syrian golden hamster; details: for effect on the contralateral flank organ: topical to right flank organ; for Percent Inhibition / Pigmented macule Right (+T): Table 5, T 0.5 μg + fatty acid 1 mg; for Percent Inhibition / Pigmented macule Right (+T) / Pigmented macule Left: 21 days; for Pigmented macule Right (+T): T alone 49.6 ± 8.3; for Pigmented macule Left: Table 5, fatty acid 1 mg without T; for inhibition of T-induced growth of pigmented macule: hamster, in vivo
Experimental: One to two weeks after castration, the hair on the lower back of each animal was clipped with an electric hair clipper and then shaved weekly to expose the flank organs. The animals were divided into 5 animals/treatment group. A treatment solution (5 μl) was applied topically to the right flank organ once a day using a Pipetteman and a polypropylene disposable tip. Unless specified the left flank organ was not treated. The treatment solution contained either (a) ethanol alone (vehicle and control), (b) an androgen (T or 5α-DHT), (c) a fatty acid, or (d) a combination of an androgen and a fatty acid. The flank organ was wiped with an alcohol pad to remove residual compound before each treatment. […] The flank organs, both the treated and untreated sides, were evaluated with methods to be described below to determine the effect of these treatments of the growth of the pigmented macules and the sebaceous glands. The body weight of each animal was recorded before and after treatment.
The data are presented as mean ± standard deviation. […]

[2] = target: T1, 5α-Reductase of Rat Liver Microsomes (Rattus norvegicus, UniProt P24008); assay: biochemical; details: for inhibition at 5 µM: read-out: % Inhibition of [^3 H]4-MA binding, Table 2, 5 μM
T1 sequence (P24008 1-259): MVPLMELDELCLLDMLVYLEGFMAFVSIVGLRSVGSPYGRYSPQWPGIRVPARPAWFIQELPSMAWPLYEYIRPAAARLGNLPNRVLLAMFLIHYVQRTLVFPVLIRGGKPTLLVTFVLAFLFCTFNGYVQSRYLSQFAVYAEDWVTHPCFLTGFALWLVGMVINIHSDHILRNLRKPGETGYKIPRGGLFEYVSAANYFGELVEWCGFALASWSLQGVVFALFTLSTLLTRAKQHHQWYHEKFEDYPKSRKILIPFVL

[3] = read-out: % Inhibition of [^3 H]4-MA binding, Table 1, 10 μM
[4] = read-out: % Inhibition of [^3 H]4-MA binding, Table 1, 40 μM
[5] = read-out: % Inhibition of [^3 H]4-MA binding, Table 1, 200 μM
[6] = read-out: % Inhibition of [^3 H]4-MA binding, Table 2, 10 μM
[7] = read-out: % Inhibition of [^3 H]4-MA binding, Table 2, 40 μM
[8] = read-out: % Inhibition of [^3 H]4-MA binding, Table 2, 200 μM
[9] = read-out: % Inhibition of [^3 H]4-MA binding

SMILES: C[C@]12CCC(=O)C[C@@H]1CC[C@@H]1[C@@H]2CC[C@]2(C)[C@@H](O)CC[C@@H]12 [5α-DHT, 5α-dihydrotestosterone, reference compound]
- effect on the contralateral flank organ [1]: no detectable effect

SMILES: CCCCC/C=C\C/C=C\C/C=C\C/C=C\CCCC(=O)O [Arachidonic acid]
- IC50 [2]: 65 µM
- inhibition at 10 µM [2, 3]: < 10%
- inhibition at 40 µM [2, 4]: 30 ± 10%
- inhibition at 200 µM [2, 5]: 88 ± 5%
- inhibition at 10 µM [2, 6]: < 10%
- inhibition at 40 µM [2, 7]: 30%
- inhibition at 200 µM [2, 8]: 88%
- Percent Inhibition [1]: 28%
- Pigmented macule Right (+T) [1]: 35.7 ± 7.9 mm^2
- Pigmented macule Left [1]: 4.7 ± 1.6 mm^2
- inhibition of T-induced growth of pigmented macule [1]: Weak inhibitions

SMILES: CCCCC/C=C\C/C=C\CCCCCCCC(=O)O [Linoleic acid]
- IC50 [2]: 117 µM
- inhibition at 10 µM [2, 3]: < 10%
- inhibition at 40 µM [2, 4]: 12 ± 3%
- inhibition at 200 µM [2, 5]: 86 ± 4%
- inhibition at 10 µM [2, 6]: < 10%
- inhibition at 40 µM [2, 7]: 12%
- inhibition at 200 µM [2, 8]: 86%
- Percent Inhibition [1]: 52%
- Pigmented macule Right (+T) [1]: 23.9 ± 5.0 mm^2
- Pigmented macule Left [1]: 5.4 ± 1.6 mm^2
- inhibition of T-induced growth of pigmented macule [1]: active

SMILES: CC/C=C\C/C=C\C/C=C\C/C=C\CCCCC(=O)O [Octadecatetraenoic acid]
- IC50 [2]: 57 µM
- inhibition at 10 µM [2, 3]: < 10%
- inhibition at 40 µM [2, 4]: 40 ± 6%
- inhibition at 200 µM [2, 5]: 88 ± 2%
- inhibition at 10 µM [2, 6]: < 10%
- inhibition at 40 µM [2, 7]: 40%
- inhibition at 200 µM [2, 8]: 88%

SMILES: CCCCCCCC/C=C\CCCCCCCC(=O)OC [Oleic acid methyl ester]
- inhibition at 40 µM [2, 9]: < 10%
- inhibition at 200 µM [2, 9]: < 10%

SMILES: CCCCCCCC/C=C\CCCCCCCC(=O)O [Oleic acid]
- IC50 [2]: 128 µM
- inhibition at 10 µM [2, 3]: < 10%
- inhibition at 40 µM [2, 4]: 16 ± 6%
- inhibition at 200 µM [2, 5]: 63 ± 12%
- inhibition at 5 µM [2]: < 10%
- inhibition at 10 µM [2, 6]: < 10%
- inhibition at 40 µM [2, 7]: 16%
- inhibition at 200 µM [2, 8]: 63%
- Percent Inhibition [1]: 43%
- Pigmented macule Right (+T) [1]: 28.1 ± 8.3 mm^2
- Pigmented macule Left [1]: 4.7 ± 0.5 mm^2
- inhibition of T-induced growth of pigmented macule [1]: active

SMILES: CCCCCCCC/C=C\CCCCCCCCO [Oleyl alcohol]
- inhibition at 40 µM [2, 9]: < 10%
- inhibition at 200 µM [2, 9]: < 10%

SMILES: CCCCCC/C=C/CCCCCCCC(=O)O [Palmitelaidic Acid]
- inhibition at 200 µM [2, 9]: < 10%

SMILES: CCCCCCCCCCCCCCCC(=O)O [Palmitic acid]
- inhibition at 200 µM [2, 5]: < 10%
- inhibition at 200 µM [2, 8]: < 10%
- Percent Inhibition [1]: 25%
- Pigmented macule Right (+T) [1]: 37.2 ± 6.3 mm^2
- Pigmented macule Left [1]: 5.1 ± 2.9 mm^2
- inhibition of T-induced growth of pigmented macule [1]: Weak inhibitions

SMILES: CCCCCC/C=C\CCCCCCCC(=O)OC [Palmitoleic acid methyl ester]
- inhibition at 40 µM [2, 9]: < 10%
- inhibition at 200 µM [2, 9]: < 10%

SMILES: CCCCCC/C=C\CCCCCCCC(=O)O [Palmitoleic acid]
- IC50 [2]: 108 µM
- inhibition at 10 µM [2, 3]: < 10%
- inhibition at 40 µM [2, 4]: 16 ± 5%
- inhibition at 200 µM [2, 5]: 73 ± 7%
- inhibition at 10 µM [2, 6]: < 10%
- inhibition at 40 µM [2, 7]: 16%
- inhibition at 200 µM [2, 8]: 73%

SMILES: CCCCCC/C=C\CCCCCCCCO [Palmitoleyl alcohol]
- inhibition at 40 µM [2, 9]: < 10%
- inhibition at 200 µM [2, 9]: 16 ± 4%

SMILES: CCCCCCCCCCC/C=C\CCCCC(=O)O [Petroselinic acid]
- inhibition at 40 µM [2, 4]: < 10%
- inhibition at 200 µM [2, 5]: 52 ± 9%
- inhibition at 40 µM [2, 7]: < 10%
- inhibition at 200 µM [2, 8]: 52%

SMILES: C[C@]12CC[C@H]3[C@@H](CCC4=CC(=O)CC[C@@]43C)[C@@H]1CC[C@@H]2O [T, Testosterone, reference compound]
- Pigmented Macule, Untreated (L) ([1]; Table 4, T 0.5 μg alone, 18 days): 3.6 ± 0.5 mm^2
- effect on the contralateral flank organ [1]: no detectable effect

SMILES: CCCCC/C=C\C/C=C\C/C=C\CCCCC(=O)OCC(COC(=O)CCCC/C=C\C/C=C\C/C=C\CCCCC)OC(=O)CCCC/C=C\C/C=C\C/C=C\CCCCC [Tri-γ-Linolenin, tri-γ-linolenin]
- IC50 [2]: > 200 µM
- inhibition at 5 µM [2]: < 10%
- inhibition at 10 µM [2, 6]: < 10%
- inhibition at 40 µM [2, 7]: < 10%
- inhibition at 200 µM [2, 8]: < 10%

SMILES: CCCCC/C=C\C/C=C\C/C=C\CCCCC(=O)O[C@H]1CC[C@@]2(C)C(=CC[C@H]3[C@@H]4CC[C@H]([C@H](C)CCCC(C)C)[C@@]4(C)CC[C@@H]32)C1 [cholesteryl γ-linolenate]
- IC50 [2]: > 200 µM

SMILES: CC/C=C\C/C=C\C/C=C\C/C=C\C/C=C\C/C=C\CCCO [cis4,7,10,13,,16,19-docosahexenol]
- inhibition at 200 µM [2, 9]: 51%

SMILES: CCCCC/C=C\C/C=C\C/C=C\CCCCCCC(=O)Cl [homo-γ-linolenoyl chloride]
- IC50 [2]: > 200 µM

SMILES: CCCCC/C=C/C/C=C/CCCCCCCCC#N [linolelaidyl cyanide nitrile]
- IC50 [2]: > 200 µM

SMILES: CCCCC/C=C\C/C=C\CCCCCCCCC#N [linoleyl cyanide nitrile]
- IC50 [2]: > 200 µM

SMILES: CCCCCCC=CCCCCCCCCC(=O)OC [methyl 10-heptadecenoate]
- IC50 [2]: > 200 µM

SMILES: CCC=CCC=CCC=CCCCCCCCCCCCC(=O)OC [methyl 13,16,19-docosatrienoate]
- IC50 [2]: > 200 µM

SMILES: CCCCC/C=C\C/C=C\C/C=C\CCCCCCC(=O)OC [methyl homo-γ-linolenate]
- IC50 [2]: > 200 µM

SMILES: CCCCC/C=C\C/C=C\C/C=C\CCCCC(=O)OC [methyl γ-linolenate]
- IC50 [2]: > 200 µM

SMILES: CCCC/C=C\CCCCCCCC(=O)OC [myristoleic acid methyl ester]
- inhibition at 200 µM [2, 9]: 27%

SMILES: CCCCCCCCCCCCCCCCCCC#N [nonadecane nitrile]
- IC50 [2]: > 200 µM

SMILES: CCCCCC/C=C/CCCCCCCCCC(=O)O [trans-Vaccenic Acid]
- inhibition at 200 µM [2, 8]: 39%

SMILES: CC/C=C\C/C=C\C/C=C\CCCCCCCC(=O)OC [α-Linolenic acid methyl ester]
- inhibition at 10 µM [2, 9]: < 10%
- inhibition at 40 µM [2, 9]: < 10%
- inhibition at 200 µM [2, 9]: < 10%

SMILES: CC/C=C\C/C=C\C/C=C\CCCCCCCC(=O)O [α-Linolenic acid, α-linolenic acid]
- inhibition at 10 µM [2, 3]: 19 ± 3%
- inhibition at 40 µM [2, 4]: 27 ± 7%
- inhibition at 200 µM [2, 5]: 84 ± 6%
- inhibition at 5 µM [2]: < 10%
- inhibition at 10 µM [2, 6]: 19%
- inhibition at 40 µM [2, 7]: 27%
- inhibition at 200 µM [2, 8]: 84%
- Percent Inhibition [1]: 44%
- Pigmented macule Right (+T) [1]: 27.6 ± 8.2 mm^2
- Pigmented macule Left [1]: 4.1 ± 1.2 mm^2
- inhibition of T-induced growth of pigmented macule [1]: less active than γ-LA

SMILES: CC/C=C\C/C=C\C/C=C\CCCCCCCCO [α-Linolenyl alcohol]
- inhibition at 10 µM [2, 9]: < 10%
- inhibition at 40 µM [2, 9]: < 10%
- inhibition at 200 µM [2, 9]: 24 ± 1%

SMILES: CCCCC/C=C\C/C=C\C/C=C\CCCCC(=O)Cl [γ-Linolenoyl Chloride, γ-linolenoyl chloride]
- IC50 [2]: > 200 µM
- inhibition at 10 µM [2, 6]: < 10%
- inhibition at 40 µM [2, 7]: < 10%
- inhibition at 200 µM [2, 8]: < 10%

SMILES: CCCCC/C=C\C/C=C\C/C=C\CCCCCOC(C)=O [γ-Linolenyl Acetate, γ-linolenyl acetate]
- IC50 [2]: > 200 µM
- inhibition at 5 µM [2]: < 10%
- inhibition at 10 µM [2, 6]: < 10%
- inhibition at 40 µM [2, 7]: < 10%
- inhibition at 200 µM [2, 8]: 27%

SMILES: CCCCC/C=C\C/C=C\C/C=C\CCCCCO [γ-Linolenyl Alcohol, γ-linolenyl alcohol]
- IC50 [2]: > 200 µM
- inhibition at 5 µM [2]: < 10%
- inhibition at 10 µM [2, 6]: < 10%
- inhibition at 40 µM [2, 7]: < 10%
- inhibition at 200 µM [2, 8]: 41%
